In article PMC8062632, “Structural studies of phosphorylation-dependent interactions between the V2R receptor and arrestin-2” (Nature Communications, 2021):

Tests used:
Assay type in all cases: cell-based
[1] = test system: V2R-1 (V2R-T347A); test: FlAsH-BRET recruitment of MEK1 to arrestin2; conditions: HEK293 cells; for ΔBRET ratio, MEK1 recruitment to arrestin2: V2R-1, Argipressin 10 μM, 37 °C, 10 min
Experimental: (§1) The blue ball: K357 site in arrestin2; Yellow pentagram: the position of FlAsH labeled in MEK1. […] Data are expressed as ΔBRET ratio relative values and represent the mean ± SEM of three independent experiments (n = 3). […] Source data are provided in the Source Data file.
(§2) 24 h after transfection, the cells were detached and distributed into 96-well plates at a density of ~25,000 cells per well. After another 24 h of incubation at 37 °C, the cells were labeled FlAsH-EDT2 for 40 min at 37 °C and washed twice with Tyrode’s buffer (140 mM NaCl, 2.7 mM KCl, 1 mM CaCl2, 12 mM NaHCO3, 5.6 mM D-glucose, 0.5 mM MgCl2, 0.37 mM NaH2PO4, and 25 mM HEPES, pH = 7.4) and stimulated with or without Argipressin (final concentration of 10 μM) at 37 °C for 10 min Luciferase substrate coelenterazine-h was added at a final concentration of 5 μM before light emissions were recorded using a Mithras LB940 microplate reader (Berthold Technologies) equipped with BRET filter sets. The BRET signal was determined by calculating the ratio of the light intensity emitted by YFP ([…]) over the light intensity emitted by Rluc ([…]). Source data are provided in a Source Data file.

[2] = test system: V2R-3 (V2R-S357A); test: FlAsH-BRET recruitment of MEK1 to arrestin2; conditions: HEK293 cells; for ΔBRET ratio, MEK1 recruitment to arrestin2: V2R-3, Argipressin 10 μM, 37 °C, 10 min
Experimental: as §1, §2

[3] = test system: V2R-4 (V2R-T360A); test: FlAsH-BRET recruitment of MEK1 to arrestin2; conditions: HEK293 cells; for ΔBRET ratio, MEK1 recruitment to arrestin2: V2R-4, Argipressin 10 μM, 37 °C, 10 min
Experimental: as §1, §2

[4] = test system: V2R-6-7 (V2R-S363A/S364A); test: FlAsH-BRET recruitment of MEK1 to arrestin2; conditions: HEK293 cells; for ΔBRET ratio, MEK1 recruitment to arrestin2: V2R-6-7, Argipressin 10 μM, 37 °C, 10 min
Experimental: as §1, §2

[5] = test system: V2R-WT; test: FlAsH-BRET recruitment of MEK1 to arrestin2; conditions: HEK293 cells; for ΔBRET ratio, MEK1 recruitment to arrestin2: V2R-WT, Argipressin 10 μM, 37 °C, 10 min
Experimental: as §1, §2

[6] = test system: V2R-1 (V2R-T347A); test: FlAsH-BRET recruitment of c-Raf-1 to arrestin2; conditions: HEK293 cells; for ΔBRET ratio, c-Raf-1 recruitment to arrestin2: V2R-1, Argipressin 10 μM, 37 °C, 10 min
Experimental: (§3) The interaction between arrestin2 and c-Raf-1 was measured by the FlAsH-BRET method. […] Data are expressed as relative values of ΔBRET ratio with the mean ± SEM of three independent experiments (n = 3). […] Source data are provided in the Source. Data file.
(§4) After 24 h of transfection, the cells were detached and distributed into 96-well plates at a density of ~25,000 cells per well. After another 24 h incubation at 37 °C, the cells were labeled FlAsH-EDT2 for 40 min at 37 °C and washed twice with Tyrode’s buffer (140 mM NaCl, 2.7 mM KCl, 1 mM CaCl2, 12 mM NaHCO3, 5.6 mM D-glucose, 0.5 mM MgCl2, 0.37 mM NaH2PO4, and 25 mM HEPES, pH = 7.4) and stimulated with or without Argipressin (final concentration of 10 μM) at 37 °C for 10 min Luciferase substrate coelenterazine-h was added at a final concentration of 5 μM before light emissions were recorded using a Mithras LB940 microplate reader (Berthold Technologies) equipped with BRET filter sets. The BRET signal was determined by calculating the ratio of the light intensity emitted by YFP ([…]) over the light intensity emitted by Rluc ([…]). Source data are provided in a Source Data file.

[7] = test system: V2R-3 (V2R-S357A); test: FlAsH-BRET recruitment of c-Raf-1 to arrestin2; conditions: HEK293 cells, Argipressin 10 μM, 37 °C, 10 min
Experimental: as §3, §4

[8] = test system: V2R-4 (V2R-T360A); test: FlAsH-BRET recruitment of c-Raf-1 to arrestin2; conditions: HEK293 cells, Argipressin 10 μM, 37 °C, 10 min
Experimental: as §3, §4

[9] = test system: V2R-6-7 (V2R-S363A/S364A); test: FlAsH-BRET recruitment of c-Raf-1 to arrestin2; conditions: HEK293 cells; for ΔBRET ratio, c-Raf-1 recruitment to arrestin2: V2R-6-7, Argipressin 10 μM, 37 °C, 10 min
Experimental: as §3, §4

[10] = test system: V2R-WT; test: FlAsH-BRET recruitment of c-Raf-1 to arrestin2; conditions: HEK293 cells, Argipressin 10 μM, 37 °C, 10 min
Experimental: as §3, §4

**Q.** Which “ΔBRET ratio, MEK1 recruitment to arrestin2” value (shortened to “ΔBRET ratio, MEK1 recruitment”) ([1]; Data1) does the source give for vasopressin here?
**A.** 0.008

**Q.** And the “ΔBRET ratio, MEK1 recruitment” value ([1]; Data2)?
**A.** 0.004

**Q.** And the “ΔBRET ratio, MEK1 recruitment” value ([1]; Data3)?
**A.** 0.005

**Q.** What about the “recruitment of MEK1 to arrestin2” value ([1]; V2 receptor T347A mutant, in words) of the same substance?
**A.** significantly increased

**Q.** What about the “MEK1-arrestin2 association in response to vasopressin stimulation” value (“MEK1-arrestin2 association in response” for short) ([2]; S357A mutation of V2R, in words) of the same substance?
**A.** almost abolished

**Q.** What about the “ΔBRET ratio, MEK1 recruitment” value ([2]; Data1) of the same substance?
**A.** 0

**Q.** What about the “ΔBRET ratio, MEK1 recruitment” value ([2]; Data2) of the same substance?
**A.** 0.001

**Q.** And the “ΔBRET ratio, MEK1 recruitment” value ([2]; Data3)?
**A.** 0.001

**Q.** What about the “MEK1-arrestin2 association in response” value ([3]; T360A mutation of V2R, in words) of the same substance?
**A.** almost abolished

**Q.** What about the “ΔBRET ratio, MEK1 recruitment” value ([3]; Data1) of the same substance?
**A.** 0

**Q.** And the “ΔBRET ratio, MEK1 recruitment” value ([3]; Data2)?
**A.** -0.002

**Q.** What about the “ΔBRET ratio, MEK1 recruitment” value ([3]; Data3) of the same substance?
**A.** -0.003

**Q.** What about the “MEK1-arrestin2 association in response” value ([4]; S363A-S364A mutations of V2R, in words) of the same substance?
**A.** almost abolished

**Q.** What about the “ΔBRET ratio, MEK1 recruitment” value ([4]; Data1) of the same substance?
**A.** 0

**Q.** And the “ΔBRET ratio, MEK1 recruitment” value ([4]; Data2)?
**A.** 0.001

**Q.** What about the “ΔBRET ratio, MEK1 recruitment” value ([4]; Data3) of the same substance?
**A.** 0

**Q.** What about the “ΔBRET ratio, MEK1 recruitment” value ([5]; Data1) of the same substance?
**A.** 0.008

**Q.** What about the “ΔBRET ratio, MEK1 recruitment” value ([5]; Data2) of the same substance?
**A.** 0.005

**Q.** And the “ΔBRET ratio, MEK1 recruitment” value ([5]; Data3)?
**A.** 0.008

**Q.** What about the “recruitment of MEK1 to arrestin2” value ([5]; wild-type V2 receptor, in words) of the same substance?
**A.** significantly increased

**Q.** What about the “c-Raf-1 recruited to arrestin, compared with wild-type V2 receptor” value ([6]; T347A mutant of the V2 receptor, in words) of the same substance?
**A.** significantly less

**Q.** And the “ΔBRET ratio, c-Raf-1 recruitment to arrestin2” value ([6]; Data1)?
**A.** 0.006

**Q.** And the “ΔBRET ratio, c-Raf-1 recruitment to arrestin2” value ([6]; Data2)?
**A.** 0.002

**Q.** What about the “ΔBRET ratio, c-Raf-1 recruitment to arrestin2” value ([6]; Data3) of the same substance?
**A.** 0.005

**Q.** What about the “ΔBRET ratio, c-Raf-1 recruitment to arrestin2” value ([7]; Data1) of the same substance?
**A.** 0.005

**Q.** What about the “ΔBRET ratio, c-Raf-1 recruitment to arrestin2” value ([7]; Data2) of the same substance?
**A.** 0.005

**Q.** And the “ΔBRET ratio, c-Raf-1 recruitment to arrestin2” value ([7]; Data3)?
**A.** 0.006

**Q.** And the “ΔBRET ratio, c-Raf-1 recruitment to arrestin2” value ([8]; Data1)?
**A.** 0.001

**Q.** And the “ΔBRET ratio, c-Raf-1 recruitment to arrestin2” value ([8]; Data2)?
**A.** 0.001

**Q.** What about the “ΔBRET ratio, c-Raf-1 recruitment to arrestin2” value ([8]; Data3) of the same substance?
**A.** 0

**Q.** And the “vasopressin-induced interaction between c-Raf-1 and arrestin2” value ([9]; S363A-S364A mutations in V2R, in words)?
**A.** abolished

**Q.** What about the “ΔBRET ratio, c-Raf-1 recruitment to arrestin2” value ([9]; Data1) of the same substance?
**A.** 0

**Q.** And the “ΔBRET ratio, c-Raf-1 recruitment to arrestin2” value ([9]; Data2)?
**A.** 0.001

**Q.** And the “ΔBRET ratio, c-Raf-1 recruitment to arrestin2” value ([9]; Data3)?
**A.** 0

**Q.** And the “ΔBRET ratio, c-Raf-1 recruitment to arrestin2” value ([10]; Data1)?
**A.** 0.014

**Q.** What about the “ΔBRET ratio, c-Raf-1 recruitment to arrestin2” value ([10]; Data2) of the same substance?
**A.** 0.012

**Q.** And the “ΔBRET ratio, c-Raf-1 recruitment to arrestin2” value ([10]; Data3)?
**A.** 0.015
